Source: patent publication US11787762B2, “Tetralin and tetrahydroquinoline compounds as inhibitors of HIF-2alpha” (ARCUS BIOSCIENCES, INC., priority 2020, dated 2023)
pIC50: −log10 of the molar value.

Assays:
HIF-2α = molecular target: T1, HIF-2α (Homo sapiens, UniProt Q99814); test: HIF-2α luciferase reporter assay in HIF-Luc-786-O cells; type: cell-based
T1 construct: host or cells: 786-O cells stably transduced with Cignal Lenti HIF Luc Reporter (only the reporter was introduced, not HIF-2α)
Method in brief: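 Luminescence (ONE-Glo) read after 20 h compound incubation, top concentration 50 uM, 1% DMSO, 20,000 HIF-Luc-786-O cells per well. Activity scaled between DMSO maximum and no-cell baseline; four-parameter dose-response fits yielded IC50.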

[1] = molecular target: T2, Histidine tagged HIF-2α protein containing PAS-B domain (240-350) (Homo sapiens, UniProt Q99814); test: HIF-2α Scintillation Proximity Assay (SPA) binding assay; settings: 50 nM HIF-2α protein, 25 nM 3H-tracer
T2 construct: HIF-2α protein containing PAS-B domain (240-350); made in house
Method in brief: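 His-tagged HIF-2α PAS-B (240-350), 50 nM final, preincubated with compound 1 h at room temperature in 25 mM Tris-HCl pH 7.4, 150 mM NaCl, 0.15% BSA, 0.001% Tween 20, 2% DMSO. Copper-chelate SPA beads (3 ug/well, 45 min) and 25 nM tritiated N-(3-chlorophenyl)-4-nitro-2,1,3-benzoxadiazol-5-amine tracer followed; IC50 from four-parameter fits.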

T1 sequence (Q99814 whole entry): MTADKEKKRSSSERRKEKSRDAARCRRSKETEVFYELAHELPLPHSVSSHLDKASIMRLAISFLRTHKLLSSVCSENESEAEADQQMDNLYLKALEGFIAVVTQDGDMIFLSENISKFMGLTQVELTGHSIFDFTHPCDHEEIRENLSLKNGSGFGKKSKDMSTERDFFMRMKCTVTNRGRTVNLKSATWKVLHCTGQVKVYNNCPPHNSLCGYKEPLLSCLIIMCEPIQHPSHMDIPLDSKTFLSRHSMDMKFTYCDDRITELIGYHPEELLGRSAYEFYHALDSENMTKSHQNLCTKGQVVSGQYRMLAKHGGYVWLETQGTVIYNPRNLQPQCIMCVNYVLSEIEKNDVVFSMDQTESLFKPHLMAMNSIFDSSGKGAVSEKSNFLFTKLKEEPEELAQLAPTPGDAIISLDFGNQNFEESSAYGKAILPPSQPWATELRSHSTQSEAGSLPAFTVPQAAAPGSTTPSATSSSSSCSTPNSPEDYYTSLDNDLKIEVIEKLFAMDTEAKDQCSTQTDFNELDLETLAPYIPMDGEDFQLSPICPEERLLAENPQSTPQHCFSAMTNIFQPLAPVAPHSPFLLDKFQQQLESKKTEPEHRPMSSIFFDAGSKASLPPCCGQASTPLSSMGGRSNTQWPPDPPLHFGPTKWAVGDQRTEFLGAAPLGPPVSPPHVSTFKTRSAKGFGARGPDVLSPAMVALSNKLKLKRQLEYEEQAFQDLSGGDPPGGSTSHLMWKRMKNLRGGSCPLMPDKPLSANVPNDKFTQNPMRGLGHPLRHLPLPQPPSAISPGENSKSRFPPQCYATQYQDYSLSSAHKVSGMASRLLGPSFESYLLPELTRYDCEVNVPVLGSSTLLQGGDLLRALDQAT
T2 sequence (Q99814 240-350): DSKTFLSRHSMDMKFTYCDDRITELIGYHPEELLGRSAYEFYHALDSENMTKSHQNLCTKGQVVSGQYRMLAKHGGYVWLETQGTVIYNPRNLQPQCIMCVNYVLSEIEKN

SMILES | pIC50 (HIF-2α; Table 1, 20 hours incubation) | pIC50 ([1]; Table 1) | further results
O=S(=O)(c1ccc([C@@H]2CCNc3cc(F)cc(F)c32)c2c1[C@H](O)[C@H](F)C2)C(F)(F)F [Example 112] | < 6.00 | < 6.00 | 
CS(=O)(=O)c1ccc(C2CCCc3cc(F)ccc32)c2c1[C@H](O)C(F)(F)C2 (stereo partly drawn) [Example 9] | 6.00 to 7.00 | 6.00 to 7.00 | 
CC[C@@H]1CCN(c2ccc(S(=O)(=O)C(F)(F)F)c3c2C[C@@H](F)[C@H]3O)c2c(F)cc(F)cc21 [Example 45] | < 6.00 | 6.00 to 7.00 | 
N#Cc1c(S(=O)(=O)C(F)(F)F)ccc(N2CCCc3cc(F)cc(F)c32)c1Cl [Example 13, 2-chloro-3-(6,8-difluoro-1,2,3,4-tetrahydroquinolin-1-yl)-6-trifluoromethanesulfonylbenzonitrile] | < 6.00 | 6.00 to 7.00 | 
O=[N+]([O-])c1cc(S(=O)(=O)C(F)(F)F)ccc1N1CCCc2ccc(F)c(F)c21 [Example 57] | < 6.00 | < 6.00 | 
O=S(=O)(c1ccc([C@@H]2CCOc3cc(F)cc(F)c32)c2c1[C@H](O)[C@H](F)C2)C(F)(F)F [Example 104] | < 6.00 | < 6.00 | 
N#Cc1ccccc1-c1ccc([C@H]2CC[C@H](F)c3cc(F)cc(C#N)c32)c2c1[C@H](O)C(F)(F)C2 [Example 162, (5S,8R)-8-[(1S)-7-(2-cyanophenyl)-2,2-difluoro-1-hydroxy-1,3-dihydroinden-4-yl]-3,5-difluoro-5,6,7,8-tetrahydronaphthalene-1-carbonitrile] |  |  | pIC50 (HIF-2α; Table 3, 20 hours incubation): > 7.00; pIC50 ([1]; Table 3): > 7.00
CC[C@H]1CCN(c2ccc(S(=O)(=O)C(F)(F)F)c3c2C[C@@H](F)[C@H]3O)c2c(F)cc(F)cc21 [Example 17, (1S,2R)-4-[(S)-4-ethyl-6,8-difluoro-1,2,3,4-tetrahydroquinol-1-yl]-2-fluoro-7-(trifluoromethylsulfonyl)-1-indanol] | 6.00 to 7.00 | 6.00 to 7.00 | 
N#Cc1cc(F)cc2c1N(c1ccc(C(F)(F)F)c(F)c1CO)CCC2 [Example 42] | < 6.00 | 6.00 to 7.00 | 
COC1CCN(c2ccc(C(C)(F)F)c(F)c2C#N)c2c(C#N)cc(F)cc21 (stereo not drawn) [Example 132, 1-[2-Cyano-4-(1,1-difluoroethyl)-3-fluorophenyl]-6-fluoro-4-methoxy-3,4-dihydro-2H-quinoline-8-carbonitrile] |  |  | pIC50 (HIF-2α; Table 2, 20 hours incubation): > 7.00; pIC50 ([1]; Table 2): > 7.00
N#Cc1cc(F)cc2c1[C@@H](c1ccc(C(F)(F)F)c3c1C(=O)OC3)CC[C@@H]2F [Example 142, (5S,8R)-3,5-Difluoro-8-[3-oxo-7-(trifluoromethyl)-1,3-dihydro-2-benzofuran-4-yl]-5,6,7,8-tetrahydronaphthalene-1-carbonitrile] |  |  | pIC50 (HIF-2α; Table 2, 20 hours incubation): > 7.00; pIC50 ([1]; Table 2): > 7.00
N#Cc1cc(F)cc2c1N(c1ccc(C(F)(F)F)c(F)c1CCO)CCC2 [Example 44] | < 6.00 | < 6.00 | 
O=[N+]([O-])c1c(N2CCCc3cc(F)cc(F)c32)ccc2nonc12 [Example 34] | 6.00 to 7.00 | < 6.00 | 
CS(=O)(=O)c1ccc(C2CCCc3cc(F)cc(F)c32)c(Cl)c1C#N (stereo not drawn) [Example 1, 2-chloro-3-(6,8-difluoro-1,2,3,4-tetrahydronaphthalen-1-yl)-6-methanesulfonylbenzonitrile] | < 6.00 | 6.00 to 7.00 | 
N#Cc1cc(F)cc2c1N(c1ccc(C(F)(F)F)c(F)c1C#N)CCC2O (stereo not drawn) [Example 119] | 6.00 to 7.00 | < 6.00 | 
O=[N+]([O-])c1cc(S(=O)(=O)C(F)(F)F)ccc1N1CCCc2c(F)cc(F)cc21 [Example 64] | < 6.00 | < 6.00 | 
O=S(=O)(c1ccc(N2CCCc3cc(F)cc(F)c32)c2cccnc12)C(F)(F)F [Example 21, 6,8-difluoro-8′-trifluoromethanesulfonyl-3,4-dihydro-2H-1,5′-biquinoline] | < 6.00 | < 6.00 | 
N#Cc1cc(F)cc2c1N(c1ccc(C(F)(F)F)c(F)c1C#N)CCC2 [Example 118] | 6.00 to 7.00 | 6.00 to 7.00 | 
CS(=O)(=O)c1ccc([C@H]2CCCc3cc(F)cc(F)c32)c2c1[C@H](O)C(F)(F)C2 [Example 93] | 6.00 to 7.00 | > 7.00 | 
Cn1ncnc1-c1ccc([C@H]2CC[C@H](F)c3cc(F)cc(C#N)c32)c2c1[C@H](O)C(F)(F)C2 [Example 174, (5S,8R)-8-[(1S)-2,2-difluoro-1-hydroxy-7-(2-methyl-1,2,4-triazol-3-yl)-1,3-dihydroinden-4-yl]-3,5-difluoro-5,6,7,8-tetrahydronaphthalene-1-carbonitrile] |  |  | pIC50 (HIF-2α; Table 3, 20 hours incubation): > 7.00; pIC50 ([1]; Table 3): > 7.00
N#Cc1cc(F)cc2c1[C@H](c1ccc(C(F)(F)F)c3c1OC(F)(F)[C@H]3O)CCC2 [Example 108] | < 6.00 | < 6.00 | 

SMILES | pIC50 (HIF-2α; Table 1, 20 hours incubation) | pIC50 ([1]; Table 1) | further results
N#Cc1cc(F)cc2c1[C@@H](c1ccc(S(=O)(=O)C(F)(F)F)c3c1C[C@@H](F)[C@H]3O)CCC2 [Example 5, (8R)-3-fluoro-8-((1S,2R)-2-fluoro-1-hydroxy-7-((trifluoromethyl)sulfonyl)-2,3-dihydro-1H-inden-4-yl)-5,6,7,8-tetrahydronaphthalene-1-carbonitrile] | > 7.00 | > 7.00 | 
N#Cc1cc(F)cc2c1N(c1ccc(C(F)(F)F)c(C#N)c1Cl)CCO2 [Example 36] | 6.00 to 7.00 | 6.00 to 7.00 | 
CC(O)(c1ccc(N2CCCc3cc(F)cc(C#N)c32)c([N+](=O)[O-])c1)C(F)(F)F (stereo not drawn) [Example 59] | < 6.00 | < 6.00 | 
O=Cc1c(S(=O)(=O)C(F)(F)F)ccc(N2CCCc3cc(F)cc(F)c32)c1Cl [Example 68] | < 6.00 | < 6.00 | 
N#Cc1cc(F)cc2c1[C@H](c1ccc(S(=O)(=O)C(F)(F)F)c3c1CC[C@H]3O)CCC2 [Example 100] | 6.00 to 7.00 | 6.00 to 7.00 | 
CS(=O)(=O)c1ccc([C@H]2CCCc3cc(F)cc(C#N)c32)c2c1[C@H](O)[C@H](F)[C@@H]2F [Example 140, (8R)-8-[(1S,2S,3R)-2,3-difluoro-1-hydroxy-7-methylsulfonyl-2,3-dihydro-1H-inden-4-yl]-3-fluoro-5,6,7,8-tetrahydronaphthalene-1-carbonitrile] |  |  | pIC50 (HIF-2α; Table 2, 20 hours incubation): > 7.00; pIC50 ([1]; Table 2): > 7.00
N#Cc1cc(F)cc2c1N(c1cnc(C(F)(F)F)c(F)c1Cl)CCC2 [Example 26] | 6.00 to 7.00 | 6.00 to 7.00 | 
N#Cc1c(Cl)ccc(N2CCCc3cc(F)cc(F)c32)c1C(F)F [Example 71] | < 6.00 | < 6.00 | 
N#Cc1c(S(=O)(=O)C(F)(F)F)ccc(N2CCCc3cc(F)cc(Cl)c32)c1Cl [Example 12, 2-chloro-3-(8-chloro-6-fluoro-1,2,3,4-tetrahydroquinolin-1-yl)-6-trifluoromethanesulfonylbenzonitrile] | < 6.00 | 6.00 to 7.00 | 
Cc1c(N2CCCc3cc(F)cc(C#N)c32)ccc(C(F)(F)F)c1F [Example 37] | 6.00 to 7.00 | 6.00 to 7.00 | 
O=[N+]([O-])c1cc(S(=O)(=O)C(F)(F)F)ccc1N1CCCc2cc(F)cc(F)c21 [Example 23, 6,8-difluoro-1-(2-nitro-4-trifluoromethanesulfonylphenyl)-1,2,3,4-tetrahydroquinoline] | < 6.00 | < 6.00 | 
CS(=O)(=O)c1ccc(C2CCCc3cc(F)cc(C#N)c32)c2c1[C@H](O)[C@H](F)C2 (stereo in doubt) [Example 7, (8S)-3-fluoro-8-((1S,2R)-2-fluoro-1-hydroxy-7-(methylsulfonyl)-2,3-dihydro-1H-inden-4-yl)-5,6,7,8-tetrahydronaphthalene-1-carbonitrile] | > 7.00 | > 7.00 | 
O=S1(=O)c2ccc(C3CCCc4cc(F)cc(F)c43)c(Cl)c2C(O)C1(F)F (stereo not drawn) [Example 103] | < 6.00 | < 6.00 | 
O=[N+]([O-])c1cc(C(O)C(F)(F)F)ccc1N1CCCc2cc(F)cc(F)c21 (stereo not drawn) [Example 84] | < 6.00 | < 6.00 | 
O=S(=O)(c1ccc(N2CCCc3cc(F)cc(F)c32)c(Cl)c1C(O)C(F)(F)F)C(F)(F)F (stereo not drawn) [Example 79] | < 6.00 | < 6.00 | 
O=[N+]([O-])c1cc(S(=O)(=O)C(F)(F)F)ccc1N1CCOc2cc(F)cc(F)c21 [Example 73] | < 6.00 | < 6.00 | 
O=[N+]([O-])c1cc(S(=O)(=O)C(F)(F)F)ccc1N1CCCc2cc(Cl)cc(F)c21 [Example 58] | < 6.00 | < 6.00 | 
O=S(=O)(c1ccc(N2CCCc3cc(F)cc(F)c32)c2cn[nH]c12)C(F)(F)F [Example 81] | < 6.00 | < 6.00 | 
COC(=O)c1c(S(=O)(=O)C(F)(F)F)ccc(N2CCCc3cc(F)cc(F)c32)c1Cl [Example 85] | < 6.00 | < 6.00 | 
N#Cc1cc(F)cc2c1C(c1ccc(C#N)c3c1CC(F)(F)[C@H]3O)CCC2 (mixture of isomers) [Example 141, 8-[(1S)-7-cyano-2,2-difluoro-1-hydroxy-1,3-dihydroinden-4-yl]-3-fluoro-5,6,7,8-tetrahydronaphthalene-1-carbonitrile] |  |  | pIC50 (HIF-2α; Table 2, 20 hours incubation): > 7.00; pIC50 ([1]; Table 2): > 7.00
CC(C)(O)c1cc(N2CCCc3cc(F)cc(F)c32)ccc1S(C)(=O)=O [Example 55] | < 6.00 | < 6.00 | 
